Read-outs that look alike come from different tables or passages of the source.
Experiments:
[1] = system: cord-blood derived NK cells; experiment: Expression of CXCR4, CD49e and CD62L receptors on cultured cord blood NK cells (FACS); assay type: cell-based, human; details: 2.5 or 5 mM nicotinamide, three weeks, vs cytokines only
Description: 2. Purified CD56+ or CD56+CD3− cells from total nuclear or mononuclear cells or from the fraction depleted from CD34+ or CD133+ cells were cultured in culture bags, T-Flasks or 24 well plates at a concentration of 1-100×10^4 cells/ml in MEMα/10% FCS or CellGro SCGM (Cell Genix)/5% Human Serum/LiforCell® FBS Replacement (Lifeblood Products) containing the following human recombinant cytokines:, interleukin-2 (IL-2) (5-50 ng/ml), interleukin-15 (IL-15), FLT-3 or SCF or FLT3 and SCF or IL-2 and IL-15 or IL-2 only (Perpo Tech, Inc., Rocky Hill, N.J., USA), with or without nicotinamide, and incubated at 37° C. in a humidified atmosphere of 5% CO2 in air. The cultures were topped up once or twice a week with the same volume of fresh medium containing growth factors with or without nicotinamide. Eventually cultures can be supplemented once or several times a week with IL-2 and or IL-2 and IL-15. To estimate the number of cells in culture, cell samples were stained with trypan blue for counting. At various time points, samples were taken for FACS analysis to assay the relative fractions of NK cells, CD56+CD3−, CD56+CD3+, CD34+CD56+, CD56+CD16+ and/or CD56+ NKG2A cells.
(§1) The cells were washed with a PBS solution containing 1% BSA, and stained (at 4° C. for 30 min) with fluorescein isothiocyanate (FITC)- or phycoerythrin (PE)-conjugated antibodies or allophycocyanin (APC). The cells were then washed in the above buffer and analyzed using a FACScalibur® flow cytometer (Becton Dickinson, San Jose, Calif., USA). The cells were passed at a rate of up to 1000 cells/second, using a 488 nm or 661 nm argon laser beam as the light source for excitation. Emission of 10^4 cells was measured using logarithmic amplification, and analyzed using the CellQuest software (Becton Dickinson). Cells stained with FITC, PE and APC-conjugated isotype control antibodies were used to determine background fluorescence.

[2] = system: cord-blood derived CD56+ cells; experiment: Transwell chemotaxis (migration) assay; assay type: cell-based, human
Description: Chemotaxis (“migration”) assay: Migration response (chemotaxis) of human NK cells was assayed by Transwell migration assay (Costar, Cambridge, Mass.; 6.5-mm diameter, 5-μm pore size). Briefly, 100 μL chemotaxis buffer (RPMI 1640, 1% FCS) containing 2×10^5 NK cells was added to the upper chamber, and 0.5 mL chemotaxis buffer with or without 250 ng/ml stromal-derived factor CXCL12 (“SDF-1”) (R&D Systems) was added to the bottom chamber. Cells migrating within 4 hours to the bottom chamber of the “transwell” were counted for 60 seconds using FACScalibur (Becton Dickinson Immunocytometry Systems).

BL2 target cells = assay type: cell-based; details: 2.5 mM or 5.0 mM nicotinamide for 3 weeks; E:T 1:1 to 10:1
Description: (§2) “Killing” assay: NK cells (effectors cells=E) are combined with K562 or BL2 (target cells=T), or bi-phenotypic leukemia cells at different E to T ratio (E:T). BL2 or K562, or bi-phenotypic leukemia target cells in PBS were labeled with 1 ng/ml CFSE (Invitrogen) for 15 min at 37° C. Calf Serum was added to the cells for 15 minutes, the cells were then washed and resuspended in RPMI medium. 100 μL of bi-phenotypic leukemia, BL2 or K562 cells were placed in a 96 round bottom plate at a concentration of 5×10^3 cells per well. 100 μL of non-stained NK cells were added to the bi-phenotypic leukemia, BL2 or K562 cells at a E:T ratio of 1:1, 2.5:1, 5:1, 10:1 or 20:1 (5×10^3, 1.25×10^4, 2.5×10^4, 5×10^4 and 1×10^5 cells/well, respectively, as indicated). Between 2-48 hours later. Killing of target cells in cell lines such as K562 and BL-2 was determined by FACS as a percentage propidium-iodine (PI)-positive (dead) CFSE-labeled cells. Killing of the primary leukemia cells was determined by counting with the FACS the number of CFSE stained cells that remained in the culture after their culture with the NK cells. A lower number of CFSE+ cells is indicative of higher level of killing.

K562 target cells [3] = assay type: cell-based
Description: as §2

[4] = system: human primary bi-phenotypic leukemia cells; assay type: cell-based; details: after 24 hours, NK cells of 2 donors (Donor A and Donor B)
Description: as §2

[5] = system: colo205 colorectal adenocarcinoma cell line; assay type: cell-based; details: 5 mM nicotinamide, all E:T ratios tested (1:1 to 10:1)
[6] = system: peripheral blood CD56+ NK cells; experiment: CXCR4 and CD62L expression on NK cells co-cultured with irradiated mononuclear cells; assay type: cell-based, human; details: co-culture with irradiated mononuclear cells, nicotinamide 2.5 and 5 mM
Text: NK cell cells from total mononuclear cell fraction, purified CD56+ or CD56+CD3− cells from total nuclear or mononuclear cells or from the fraction depleted from CD34+ or CD133+ cells, or CD3+ depleted, or CD3+/CD19+ depleted mononuclear cell fraction from PB, BM and CB can be cultured with irradiated stroma. For the preparation of irradiated stroma (feeder cells), mononuclear cells were irradiated with 3000 rad. After CD56 or CD56+CD3− selection or CD3 depletion the cells were counted and characterized by FACS analysis as described hereinabove. Cells were cultured as described hereinabove, with and without nicotinamide, with and without irradiated stroma at a concentration of irradiated cells of 20×10^5 cells/ml.
as §1, with “The cells were passed at a rate of up to 1000 cells/second, using a 488 nm or 661 nm argon laser beam as the light source for excitation.” left out, “fluorescence. […]” for “fluorescence.”

K562 target cells [7] = experiment: Killing assay, NK cells expanded with irradiated feeder cells; assay type: cell-based, human; details: 5:1, 2.5:1 and 1:1 NK cells per target cell
Description: as §2
Peripheral blood-derived mononuclear cell fractions were CD3 depleted and then selected for CD56+ cells by immunobead purification. […]

NC(=O)c1cccnc1 [nicotinamide]
expression of CD49e (adhesion receptor) [1]: elevated expression
expression of CD62L (trafficking receptor) [1]: strongly enhanced expression
expression of CXCR4 (migratory receptor) [1]: strongly enhanced expression
migration in response to SDF stimulus ([2]; cells cultured with 2.5 or 5 mM nicotinamide, 250 ng/ml SDF): greatly enhanced
motility in the absence of SDF stimulus ([2]; nicotinamide-cultured CD56+ cells, no SDF): enhanced motility
killing (cytotoxic) potential vs cells cultured in growth factors only (BL2 target cells): far greater
killing (cytotoxic) potential vs cells cultured in growth factors only (K562 target cells [3]; 2.5 mM or 5.0 mM nicotinamide for 3 weeks, E:T 1:1 to 10:1): far greater
killing (cytotoxic) potential vs cells cultured in growth factors only (K562 target cells [3]; E:T ratios of 1:5, 1:10 and 1:20 NK cells per target): far greater
cytotoxic potential of expanded NK cells [4]: increased activation of NK cells killing potential
cytotoxic potential towards solid tumor cells [5]: increased killing potential
expression of surface marker CD62L [6]: marked increase
expression of surface marker CXCR4 [6]: marked increase
ex-vivo killing potential (K562 target cells [7]): increased cytotoxic capability
